From US8822517B2, “Arylosulfonamides for the treatment of CNS diseases” (Adamed SP. Z O.O., priority 2010, dated 2014)

Assays:
[1] = target: T1, serotonine transporter (SERT) receptor (Homo sapiens, UniProt P31645); assay: Binding assay SERT (h), [3H]imipramine, CHO cells; conditions: for inhibition at 1 µM: read-out: SERT [%]
T1 construct: expressed in transfected cells; host or cells: CHO cells
Protocol: (§1) The specific ligand binding to the receptors is defined as the difference between the total binding and the nonspecific binding determined in the presence of an excess of so unlabelled ligand.
(§2) The specific Ligand binding to the receptor is defined as the difference between total and non-specific binding determined in the presence of an excess of unlabelled ligand. The compounds were tested at a concentration of 1×10^−6 M, and scintillation counting was the method of detection of ligand binding.

adrenergic α1 receptor = assay: Binding assay α1 (non-selective), [3H]prazosin, rat cerebral cortex; conditions: percent inhibition of control specific binding; compounds tested at 1×10^−6 M
Protocol: as §1, §2

dopaminergic D3 receptor = dopaminergic D3 receptor (Homo sapiens, UniProt P35462); assay: Binding assay D3 (h), [3H]methyl-spiperone, CHO cells; design: expressed in transfected cells; host or cells: CHO cells; conditions: for inhibition at 1 µM: read-out: D3 [%]
dopaminergic D3 receptor, sequence (P35462 whole entry): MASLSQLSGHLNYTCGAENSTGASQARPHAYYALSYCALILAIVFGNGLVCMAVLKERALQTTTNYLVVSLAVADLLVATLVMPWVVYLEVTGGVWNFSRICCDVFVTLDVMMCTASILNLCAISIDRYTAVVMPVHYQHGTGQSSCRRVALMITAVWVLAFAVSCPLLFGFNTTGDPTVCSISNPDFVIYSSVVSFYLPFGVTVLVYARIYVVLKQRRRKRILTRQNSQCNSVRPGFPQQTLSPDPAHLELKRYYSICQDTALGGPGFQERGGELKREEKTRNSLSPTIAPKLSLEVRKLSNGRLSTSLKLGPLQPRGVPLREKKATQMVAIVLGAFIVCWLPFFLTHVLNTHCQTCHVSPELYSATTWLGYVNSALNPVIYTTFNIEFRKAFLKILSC
Protocol: as §1, §2

[2] = target: serotoninergic 5-HT6 receptor (Homo sapiens, UniProt P50406); assay: Binding assay 5-HT6 (h), [3H]LSD, CHO cells; design: expressed in transfected cells; host or cells: CHO cells; conditions: for inhibition at 1 µM: read-out: 5-HT6
serotoninergic 5-HT6 receptor, sequence (P50406 whole entry): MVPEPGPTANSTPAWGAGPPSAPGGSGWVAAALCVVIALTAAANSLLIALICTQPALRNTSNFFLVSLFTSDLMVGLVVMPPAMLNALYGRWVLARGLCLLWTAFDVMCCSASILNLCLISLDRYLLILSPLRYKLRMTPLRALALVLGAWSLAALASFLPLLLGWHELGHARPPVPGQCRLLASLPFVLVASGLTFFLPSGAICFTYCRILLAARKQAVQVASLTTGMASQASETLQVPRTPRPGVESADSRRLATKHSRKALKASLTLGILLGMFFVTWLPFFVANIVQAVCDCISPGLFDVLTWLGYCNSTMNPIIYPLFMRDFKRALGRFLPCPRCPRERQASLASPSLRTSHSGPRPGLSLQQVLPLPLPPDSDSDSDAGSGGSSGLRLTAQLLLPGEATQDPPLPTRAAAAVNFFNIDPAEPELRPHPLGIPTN
Protocol: as §1, §2

[3] = target: serotoninergic 5-HT7 receptor (Homo sapiens, UniProt P34969); assay: Binding assay 5-HT7 (h), [3H]LSD, CHO cells; design: expressed in transfected cells; host or cells: CHO cells; conditions: for inhibition at 1 µM: read-out: 5-HT7
serotoninergic 5-HT7 receptor, sequence (P34969 whole entry): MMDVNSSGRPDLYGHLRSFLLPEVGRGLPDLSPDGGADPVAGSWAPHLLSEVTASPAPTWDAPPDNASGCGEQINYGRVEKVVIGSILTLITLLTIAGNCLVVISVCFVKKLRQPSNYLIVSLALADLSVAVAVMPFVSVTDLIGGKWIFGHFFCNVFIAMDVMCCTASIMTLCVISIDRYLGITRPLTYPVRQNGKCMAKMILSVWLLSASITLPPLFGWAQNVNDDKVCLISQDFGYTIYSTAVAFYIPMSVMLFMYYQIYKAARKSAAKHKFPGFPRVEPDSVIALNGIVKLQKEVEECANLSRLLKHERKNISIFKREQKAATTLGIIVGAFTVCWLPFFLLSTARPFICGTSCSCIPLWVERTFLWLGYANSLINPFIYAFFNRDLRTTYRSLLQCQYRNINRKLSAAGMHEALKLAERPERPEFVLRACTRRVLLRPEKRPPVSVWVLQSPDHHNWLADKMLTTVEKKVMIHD
Protocol: as §1, §2

dopaminergic D2 receptor = dopaminergic D2 receptor (Homo sapiens, UniProt P14416); assay: Binding assay D2S (h), [3H]methyl-spiperone, HEK-293 cells; design: expressed in transfected cells; host or cells: HEK-293 cells; conditions: for inhibition at 1 µM: read-out: D2 [%]
dopaminergic D2 receptor, sequence (P14416 1-414 isoform P14416-2): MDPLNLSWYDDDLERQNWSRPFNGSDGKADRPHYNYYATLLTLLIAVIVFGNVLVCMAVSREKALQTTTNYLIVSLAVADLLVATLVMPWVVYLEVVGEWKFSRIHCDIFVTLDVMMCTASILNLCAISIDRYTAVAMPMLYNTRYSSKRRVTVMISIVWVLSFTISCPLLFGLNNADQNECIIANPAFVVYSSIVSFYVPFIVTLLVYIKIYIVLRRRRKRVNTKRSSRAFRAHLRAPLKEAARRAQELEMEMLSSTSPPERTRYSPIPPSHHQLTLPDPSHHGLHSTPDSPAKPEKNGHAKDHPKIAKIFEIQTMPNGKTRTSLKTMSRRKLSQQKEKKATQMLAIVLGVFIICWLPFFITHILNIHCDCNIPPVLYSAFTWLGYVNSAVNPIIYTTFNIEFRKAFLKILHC
Protocol: as §1, §2

[4] = target: T2, serotoninergic 5-HT1A receptor (Homo sapiens, UniProt P08908); assay: Binding assay 5-HT1A (h), [3H]8-OH-DPAT, HEK-293 cells; design: expressed in transfected cells; host or cells: HEK-293 cells; conditions: for inhibition at 1 µM: read-out: 5-HT1A
T2 sequence (P08908 1-422): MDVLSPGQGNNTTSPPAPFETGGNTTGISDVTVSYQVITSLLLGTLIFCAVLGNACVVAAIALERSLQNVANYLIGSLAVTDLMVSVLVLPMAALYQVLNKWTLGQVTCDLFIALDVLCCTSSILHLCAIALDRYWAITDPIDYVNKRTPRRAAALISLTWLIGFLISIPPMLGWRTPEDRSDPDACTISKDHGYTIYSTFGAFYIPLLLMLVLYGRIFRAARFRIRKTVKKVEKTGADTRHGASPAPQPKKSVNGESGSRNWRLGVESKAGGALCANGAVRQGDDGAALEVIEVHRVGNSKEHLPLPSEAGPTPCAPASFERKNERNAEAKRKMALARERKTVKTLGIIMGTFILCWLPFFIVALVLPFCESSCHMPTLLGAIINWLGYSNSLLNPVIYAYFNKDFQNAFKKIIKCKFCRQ
Protocol: as §1, §2

[5] = target: serotoninergic 5-HT2A receptor (Homo sapiens, UniProt P28223); assay: Binding assay 5-HT2A (h), [3H]ketanserin, HEK-293 cells; design: expressed in transfected cells; host or cells: HEK-293 cells; conditions: for inhibition at 1 µM: read-out: 5-HT2A
serotoninergic 5-HT2A receptor, sequence (P28223 whole entry): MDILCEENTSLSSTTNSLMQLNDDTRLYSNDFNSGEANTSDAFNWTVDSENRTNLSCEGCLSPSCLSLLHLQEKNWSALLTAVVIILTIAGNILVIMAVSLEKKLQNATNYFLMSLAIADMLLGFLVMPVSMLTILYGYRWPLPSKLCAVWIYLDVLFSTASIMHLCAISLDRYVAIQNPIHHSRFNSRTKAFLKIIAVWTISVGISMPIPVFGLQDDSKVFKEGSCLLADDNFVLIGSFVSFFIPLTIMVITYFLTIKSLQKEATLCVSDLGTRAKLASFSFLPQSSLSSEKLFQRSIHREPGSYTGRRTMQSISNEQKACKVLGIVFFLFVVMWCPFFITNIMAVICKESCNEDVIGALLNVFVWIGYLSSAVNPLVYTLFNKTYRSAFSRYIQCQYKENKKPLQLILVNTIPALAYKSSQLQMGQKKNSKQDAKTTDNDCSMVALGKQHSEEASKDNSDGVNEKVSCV
Protocol: as §1, §2

[6] = percent inhibition of control specific binding, compounds tested at 1×10^−6 M

T1 sequence (P31645 whole entry): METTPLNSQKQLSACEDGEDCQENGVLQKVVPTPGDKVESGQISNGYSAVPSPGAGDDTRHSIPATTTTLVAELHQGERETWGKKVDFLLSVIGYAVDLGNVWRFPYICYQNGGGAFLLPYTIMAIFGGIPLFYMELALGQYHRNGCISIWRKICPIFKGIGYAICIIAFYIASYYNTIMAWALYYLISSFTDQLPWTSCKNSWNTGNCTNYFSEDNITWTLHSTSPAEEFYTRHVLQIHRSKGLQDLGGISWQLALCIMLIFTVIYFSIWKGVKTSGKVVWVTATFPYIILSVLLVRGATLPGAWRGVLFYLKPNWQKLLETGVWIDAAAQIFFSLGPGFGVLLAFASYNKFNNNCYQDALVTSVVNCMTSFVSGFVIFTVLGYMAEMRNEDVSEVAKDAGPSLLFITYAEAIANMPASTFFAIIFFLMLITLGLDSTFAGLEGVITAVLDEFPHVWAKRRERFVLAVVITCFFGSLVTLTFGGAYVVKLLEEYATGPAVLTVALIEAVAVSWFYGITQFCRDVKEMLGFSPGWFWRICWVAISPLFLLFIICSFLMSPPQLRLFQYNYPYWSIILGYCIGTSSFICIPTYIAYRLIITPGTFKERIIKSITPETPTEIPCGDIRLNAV

Row | Structure (SMILES) | SERT [%] [1, 6] | α1 [%] (adrenergic α1 receptor) | D3 [%] (dopaminergic D3 receptor; [6]) | 5-HT6 [2, 6] | 5-HT7 [3, 6] | D2 [%] (dopaminergic D2 receptor; [6]) | 5-HT1A [4, 6] | 5-HT2A [5, 6] | inhibition at 1 µM [1] | inhibition at 1 µM (dopaminergic D3 receptor) | inhibition at 1 µM [2] | inhibition at 1 µM [3] | inhibition at 1 µM (dopaminergic D2 receptor) | inhibition at 1 µM [4] | inhibition at 1 µM [5]
1 | COc1ccc(S(=O)(=O)NCCCCN2CC=C(c3c[nH]c4ccc(Cl)cc34)CC2)cc1 [Compound 42, 4-Methoxy-N{4-[4-(5-chloro-1H-indol-3-yl)-3,6-dihydropyridin-1(2H)-yl]butyl}benzenesulphonamide] | 96% | 77% | 101% | 96% | 76% | 74% | 90% | 77% | – | – | – | – | – | – | –
2 | O=S(=O)(NCCCN1CCN(c2nsc3ccccc23)CC1)c1ccc2cc(Cl)ccc2c1 [Compound 62, N-[3-[4-(1,2-Benzothiazol-3-yl)piperazin-1-yl]propyl]-6-chloro-naphthalene-2-sulphonamide] | – | 61% | – | – | – | – | – | – | 15% | 63% | 69% | 78% | 92% | 46% | 101%
3 | O=S(=O)(NCCCCN1CCN(c2nsc3ccccc23)CC1)c1cccc(Cl)c1 [Compound 69, N-[4-[4-(1,2-Benzothiazol-3-yl)piperazin-1-yl]butyl]-3-chlorobenzenesulphonamide] | – | 94% | – | – | – | – | – | – | 6% | 77% | 88% | 96% | 106% | 80% | 92%
4 | O=S(=O)(NCCCCN1CCN(c2nsc3ccccc23)CC1)c1cccc(F)c1 [Compound 71, N-[4-[4-(1,2-Benzothiazol-3-yl)piperazin-1-yl]butyl]-3-fluorobenzenesulphonamide] | – | 99% | – | – | – | – | – | – | 41% | 91% | 76% | 99% | 103% | 89% | 94%
5 | O=S(=O)(NCCCN1CCN(c2nsc3ccccc23)CC1)c1cccc(F)c1 [Compound 72, N-[3-[4-(1,2-Benzothiazol-3-yl)piperazin-1-yl]propyl]-3-fluorobenzenesulphonamide] | – | 93% | – | – | – | – | – | – | 44% | 95% | 78% | 101% | 99% | 95% | 94%
6 | N#Cc1cccc(S(=O)(=O)NCCCCN2CCN(c3nsc4ccccc34)CC2)c1 [Compound 73, N-[4-[4-(1,2-Benzothiazol-3-yl)piperazin-1-yl]butyl]-3-cyanobenzenesulphonamide] | – | 98% | – | – | – | – | – | – | 37% | 94% | 82% | 91% | 102% | 92% | 81%
7 | O=c1[nH]c2cccc(N3CCN(CCCCNS(=O)(=O)c4cccc(Cl)c4)CC3)c2[nH]1 [Compound 173, 3-Chloro-N-[4-[4-(2-oxo-1,3-dihydrobenzimidazol-4-yl)piperazin-1-yl]butyl]benzenesulphonamide] | – | 89% | – | – | – | – | – | – | – | 98% | – | – | – | – | –
8 | O=c1[nH]c2cccc(N3CCN(CCCCNS(=O)(=O)c4cccc(F)c4)CC3)c2[nH]1 [Compound 175, 3-Fluoro-N-[4-[4-(2-oxo-1,3-dihydrobenzimidazol-4-yl)piperazin-1-yl]butyl]benzenesulphonamide] | – | 82% | – | – | – | – | – | – | – | 87% | – | – | – | – | –
9 | Cc1[nH]c2ccc(Cl)cc2c1C1=CCN(CCCCNS(=O)(=O)c2ccc(F)cc2)CC1 [Compound 368, N-[4-[4-(5-Chloro-2-methyl-1H-indol-3-yl)-3,6-dihydro-2H-pyridin-1-yl]butyl]-4-fluorobenzenesulphonamide] | – | – | – | – | – | – | – | – | 14% | 94% | 96% | 42% | 41% | -7% | 64%
10 | O=S(=O)(NCCCCN1CCN(c2cccc3c2OCCO3)CC1)c1ccc2cc(Cl)ccc2c1 [Compound 387, 6-Chloro-N-[4-[4-(2,3-dihydro-1,4-benzodioxin-5-yl)piperazin-1-yl]butyl]naphthalene-2-sulphonamide] | – | 86% | – | – | – | – | – | – | -14% | 93% | 26% | 96% | – | 100% | 90%
11 | O=S(=O)(NCCCCN1CCN(c2cccc3c2OCCO3)CC1)c1cccs1 [Compound 397, N-[4-[4-(2,3-Dihydro-1,4-benzodioxin-8-yl)piperazin-1-yl]butyl]thiophene-2-sulphonamide] | – | 92% | – | – | – | – | – | – | – | – | – | – | – | 95% | 13%
12 | O=S(=O)(NCCCN1CCN(c2cccc3c2OCCO3)CC1)c1ccc(F)c(F)c1 [Compound 410, N-[3-[4-(2,3-Dihydro-1,4-benzodioxin-5-yl)piperazin-1-yl]propyl]-3,4-difluorobenzenesulphonamide] | – | 84% | – | – | – | – | – | – | – | – | – | – | – | 96% | 42%
13 | O=S(=O)(NCCCN1CCN(c2cccc3c2OCCO3)CC1)c1cccc(Br)c1 [Compound 413, 3-Bromo-N-[3-[4-(2,3-dihydro-1,4-benzodioxin-5-yl)piperazin-1-yl]propyl]benzenesulphonamide] | – | 90% | – | – | – | – | – | – | – | – | – | – | – | 88% | 40%
14 | O=c1[nH]c2cccc(N3CCN(CCCCNS(=O)(=O)c4ccc(F)cc4)CC3)c2[nH]1 [Compound 420, 4-Fluoro-N-[4-[4-(2-oxo-1,3-dihydrobenzimidazol-4-yl)piperazin-1-yl]butyl]benzenesulphonamide] | – | 82% | – | – | – | – | – | – | – | 97% | – | – | – | – | –
15 | O=c1[nH]c2cccc(N3CCN(CCCCNS(=O)(=O)c4ccc(Cl)cc4)CC3)c2[nH]1 [Compound 421, 4-Chloro-N-[4-[4-(2-oxo-1,3-dihydrobenzimidazol-4-yl)piperazin-1-yl]butyl]benzenesulphonamide] | – | 88% | – | – | – | – | – | – | – | 94% | – | – | – | – | –
16 | Cc1cccc(S(=O)(=O)NCCCCN2CCN(c3cccc4[nH]c(=O)[nH]c34)CC2)c1 [Compound 422, 3-Methyl-N-[4-[4-(2-oxo-1,3-dihydrobenzimidazol-4-yl)piperazin-1-yl]butyl]benzenesulphonamide] | – | 86% | – | – | – | – | – | – | – | 98% | – | – | – | – | –
17 | Cc1[nH]c2ccc(Cl)cc2c1C1=CCN(CCCNS(=O)(=O)c2ccc(Cl)cc2)CC1 [Compound 444, 4-Chloro-N-[3-[4-(5-chloro-2-methyl-1H-indol-3-yl)-3,6-dihydro-2H-pyridin-1-yl]propyl]-benzenesulphonamide] | – | 26% | – | – | – | – | – | – | 44% | 74% | 87% | 59% | – | 51% | 65%
18 | Cc1[nH]c2ccc(Cl)cc2c1C1=CCN(CCNS(=O)(=O)c2cccc(F)c2)CC1 [Compound 450, N-[2-[4-(5-Chloro-2-methyl-1H-indol-3-yl)-3,6-dihydro-2H-pyridin-1-yl]ethyl]-3-fluorobenzenesulphonamide] | – | −1% | – | – | – | – | – | – | 54% | 39% | 96% | 50% | 15% | – | –
19 | Cc1[nH]c2ccc(Cl)cc2c1C1=CCN(CCNS(=O)(=O)c2ccc(Cl)cc2)CC1 [Compound 451, 4-Chloro-N-[2-[4-(5-chloro-2-methyl-1H-indol-3-yl)-3,6-dihydro-2H-pyridin-1-yl]ethyl]-benzensulphonamide] | – | −4% | – | – | – | – | – | – | 32% | 30% | 97% | 25% | 46% | – | –
20 | Cc1[nH]c2ccc(Cl)cc2c1C1=CCN(CCNS(=O)(=O)c2cccc(O)c2)CC1 [Compound 453, N-[2-[4-(5-Chloro-2-methyl-1H-indol-3-yl)-3,6-dihydro-2H-pyridin-1-yl]ethyl]-3-hydroxybenzenesulphonamide] | – | 23% | – | – | – | – | – | – | 23% | 56% | 107% | 76% | 48% | – | –
